Measurements: patent publication US12233161B1, “Lipids and lipid nanoparticle formulations” (LONGUIDE BIOPHARMA CORPORATION, priority 2024, dated 2025)
Values belong to the compound of their own block, whether it stands above or below them.

What was measured:
mice = experiment: In vivo delivery of FLuc-mRNA lipid nanoparticles in mice, in vivo imaging (IVIS); settings: for in vivo delivery efficiency as compared to the benchmark compound SM102 / tissue-targeting specificity (lung vs spleen depending on molar percentage of compound): certain formulations, Table 2
In short: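 Mice (n=3) received about 75 μL FLuc-mRNA LNP per mouse intramuscularly (rectus femoris), intravenously (tail vein), intraperitoneally or subcutaneously (back). After injection, D-luciferin (200 μL, 15 mg/mL) was given i.p. 10-15 min before IVIS imaging.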

[1] = Particle size and PDI of nucleic acid lipid nanoparticle preparations by dynamic light scattering; type: physicochemical
In short: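 Size read by DLS after diluting the LNP preparation (approx. 0.04 mg/mL mRNA) in ultrapure water with gentle pipette mixing. The same sample, recovered and diluted further with water, was then used for zeta potential measurement.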

[2] = Potential characterization of nucleic acid lipid nanoparticle preparations; type: physicochemical
Experimental: 20 μL of the nucleic acid lipid nanoparticle solution (containing about 0.04 mg/mL mRNA) was taken and added with 780 μL of ultrapure water, used a pipette tip to gently blow and mix, and the potential of the nanopreparation was detected by Malvern particle sizer (model ZEN3700).
27.5 μL nucleic acid lipid nanoparticle solution (containing about 0.04 mg/mL mRNA) was taken and added with 200 μL ultrapure water. A pipette tip was used to gently blow the sample and mix well. The particle size of the nanopreparation was detected by Malvern Dynamic Light Scattering Instrument (Malvern Instruments Ltd., ZEN3700, UK). After the detection, the sample was recovered to an EP tube, and 600 μL of ultrapure water was added, gently blown with a pipette tip, and the potential of the nanopreparation was measured by a Malvern particle size meter.

[3] = DMG-PEG2000:DSPC:Chol:Lipid 1.00:4.00:60.00:35.00, N/P 18, IV, liver
[4] = DMG-PEG2000:DSPC:Chol:Lipid 1.00:4.00:60.00:35.00, N/P 18, IV, lung
[5] = DMG-PEG2000:DSPC:Chol:Lipid 1.00:4.00:60.00:35.00, N/P 18, IV, spleen
[6] = DMG-PEG2000:DSPC:Chol:Lipid 2.50:16.00:16.50:65.00, N/P 18, IV, liver
[7] = DMG-PEG2000:DSPC:Chol:Lipid 2.50:16.00:16.50:65.00, N/P 18, IV, lung
[8] = DMG-PEG2000:DSPC:Chol:Lipid 2.50:16.00:16.50:65.00, N/P 18, IV, spleen
[9] = mRNA LNP, 1.00:4.00:30.00:65.00, N/P 30, IV, liver
[10] = mRNA LNP, 1.00:4.00:30.00:65.00, N/P 30, IV, lung
[11] = mRNA LNP, 1.00:4.00:30.00:65.00, N/P 30, IV, spleen
[12] = DMG-PEG2000:DSPC:Chol:Lipid 1.00:4.00:60.00:35.00, N/P 18, mRNA LNP
[13] = DMG-PEG2000:DSPC:Chol:Lipid 1.71:12.98:45.31:40.00, N/P 30, mRNA LNP
[14] = DMG-PEG2000:DSPC:Chol:Lipid 2.50:16.00:16.50:65.00, N/P 18, mRNA LNP
[15] = mRNA LNP, 1.00:4.00:30.00:65.00, N/P 30
[16] = DMG-PEG2000:DSPC:Chol:Lipid 0.50:4.00:47.00:48.50, N/P 36, IV, liver
[17] = DMG-PEG2000:DSPC:Chol:Lipid 0.50:4.00:47.00:48.50, N/P 36, IV, lung
[18] = DMG-PEG2000:DSPC:Chol:Lipid 0.50:4.00:47.00:48.50, N/P 36, IV, spleen
[19] = DMG-PEG2000:DSPC:Chol:Lipid 1.00:4.00:25.00:70.00, N/P 36, IV, liver
[20] = DMG-PEG2000:DSPC:Chol:Lipid 1.00:4.00:25.00:70.00, N/P 36, IV, lung
[21] = DMG-PEG2000:DSPC:Chol:Lipid 1.00:4.00:25.00:70.00, N/P 36, IV, spleen
[22] = DMG-PEG2000:DSPC:Chol:Lipid 1.00:16.00:48.00:35.00, N/P 18, IV, liver
[23] = DMG-PEG2000:DSPC:Chol:Lipid 1.00:16.00:48.00:35.00, N/P 18, IV, lung
[24] = DMG-PEG2000:DSPC:Chol:Lipid 1.00:16.00:48.00:35.00, N/P 18, IV, spleen
[25] = DMG-PEG2000:DSPC:Chol:Lipid 0.50:4.00:47.00:48.50, N/P 36, mRNA LNP
[26] = DMG-PEG2000:DSPC:Chol:Lipid 1.00:4.00:25.00:70.00, N/P 36, mRNA LNP
[27] = DMG-PEG2000:DSPC:Chol:Lipid 1.00:16.00:48.00:35.00, N/P 18, mRNA LNP
[28] = DMG-PEG2000:DSPC:Chol:Lipid 1.40:11.15:38.95:48.50, N/P 18, mRNA LNP
[29] = DMG-PEG2000:DSPC:Chol:compound 1.00:10.00:33.00:56.00, N/P 48

PDI [1, 12]: 0.08 ± 0.02
Particle size [1, 12]: 78.48 ± 0.63 nm
PDI [1, 13]: 0.18 ± 0.00
Particle size [1, 13]: 85.86 ± 1.26 nm
PDI [1, 14]: 0.15 ± 0.01
Particle size [1, 14]: 92.82 ± 0.65 nm
PDI [1, 15]: 0.14
Particle size (nm) [1, 15]: 90.94 nm
Zeta potential (mV) [2, 15]: 12.33 mV
SMILES: CCCCCCCCCCCCNC(=O)C(O)CN(CCN(C)CCN(CC(O)C(=O)NCCCCCCCCCCCC)CC(O)C(=O)NCCCCCCCCCCCC)CC(O)C(=O)NCCCCCCCCCCCC (stereo not drawn) [Compound L0264]
IVIS (mice; DMG-PEG2000:DSPC:Chol:Lipid 1.00:4.00:60.00:35.00, N/P 18, IV, body): 9.71 × 10^7
% of organ targeting (mice; [3]): 13.54%
IVIS (mice; [3]): 4.70 × 10^6
% of organ targeting (mice; [4]): 34.29%
IVIS (mice; [4]): 1.19 × 10^7
% of organ targeting (mice; [5]): 52.16%
IVIS (mice; [5]): 1.81 × 10^7
IVIS (mice; DMG-PEG2000:DSPC:Chol:Lipid 1.71:12.98:45.31:40.00, N/P 30, IM, whole body scan): 3.34 × 10^5
IVIS (mice; DMG-PEG2000:DSPC:Chol:Lipid 2.50:16.00:16.50:65.00, N/P 18, IV, body): 4.76 × 10^7
% of organ targeting (mice; [6]): 0.90%
IVIS (mice; [6]): 9.86 × 10^5
% of organ targeting (mice; [7]): 95.82%
IVIS (mice; [7]): 1.05 × 10^8
% of organ targeting (mice; [8]): 3.28%
IVIS (mice; [8]): 3.59 × 10^6
in vivo delivery efficiency as compared to the benchmark compound SM102 (mice): superior in vivo delivery efficiency
tissue-targeting specificity (lung vs spleen depending on molar percentage of compound) (mice): strong tissue-targeting specificity
% of organ targeting (mice; [9]): 0.40%
IVIS (mice; [9]): 2.69E+06
% of organ targeting (mice; [10]): 98.90%
IVIS (mice; [10]): 6.68E+08
% of organ targeting (mice; [11]): 0.71%
IVIS (mice; [11]): 4.76E+06
IVIS (mice; mRNA LNP, DMG-PEG2000:DSPC:Chol:lipid 1.00:4.00:30.00:65.00, N/P 30, IV, body): 2.87E+08

PDI [1, 25]: 0.11 ± 0.01
Particle size [1, 25]: 113.50 ± 0.20 nm
PDI [1, 26]: 0.18 ± 0.01
Particle size [1, 26]: 167.67 ± 2.20 nm
PDI [1, 27]: 0.15 ± 0.02
Particle size [1, 27]: 119.23 ± 0.68 nm
PDI [1, 28]: 0.13 ± 0.02
Particle size [1, 28]: 91.45 ± 0.74 nm
PDI [1, 29]: 0.13
Particle size (nm) [1, 29]: 125.97 nm
Zeta potential (mV) [2, 29]: 13.60 mV
SMILES: CCCCCCCCCCCCNC(=O)C(O)CN(CCCN(CCCN(CC(O)C(=O)NCCCCCCCCCCCC)CC(O)C(=O)NCCCCCCCCCCCC)CC(O)CO)CC(O)C(=O)NCCCCCCCCCCCC (stereo not drawn) [Compound L0273]
IVIS (mice; DMG-PEG2000:DSPC:Chol:Lipid 0.50:4.00:47.00:48.50, N/P 36, IV, body): 5.29 × 10^7
% of organ targeting (mice; [16]): 1.50%
IVIS (mice; [16]): 2.55 × 10^6
% of organ targeting (mice; [17]): 95.51%
IVIS (mice; [17]): 1.62 × 10^8
% of organ targeting (mice; [18]): 2.99%
IVIS (mice; [18]): 5.07 × 10^6
IVIS (mice; DMG-PEG2000:DSPC:Chol:Lipid 1.00:4.00:25.00:70.00, N/P 36, IV, body): 1.65 × 10^8
% of organ targeting (mice; [19]): 1.40%
IVIS (mice; [19]): 6.91 × 10^6
% of organ targeting (mice; [20]): 97.42%
IVIS (mice; [20]): 4.82 × 10^8
% of organ targeting (mice; [21]): 1.19%
IVIS (mice; [21]): 5.88 × 10^6
IVIS (mice; DMG-PEG2000:DSPC:Chol:Lipid 1.00:16.00:48.00:35.00, N/P 18, IV, body): 3.19 × 10^7
% of organ targeting (mice; [22]): 14.38%
IVIS (mice; [22]): 3.44 × 10^6
% of organ targeting (mice; [23]): 9.95%
IVIS (mice; [23]): 2.38 × 10^6
% of organ targeting (mice; [24]): 75.67%
IVIS (mice; [24]): 1.81 × 10^7
IVIS (mice; DMG-PEG2000:DSPC:Chol:Lipid 1.40:11.15:38.95:48.50, N/P 18, IM, whole body scan): 2.54 × 10^6
IVIS (mice; IV, body, DMG-PEG2000:DSPC:Chol:compound 1.00:10.00:33.00:56.00, N/P 48, Fluc-mRNA): 4.36E+08
% of organ targeting (mice; IV, liver, DMG-PEG2000:DSPC:Chol:compound 1.00:10.00:33.00:56.00, N/P 48): 0.73%
IVIS (mice; IV, liver, DMG-PEG2000:DSPC:Chol:compound 1.00:10.00:33.00:56.00, N/P 48, Fluc-mRNA): 5.72E+06
% of organ targeting (mice; IV, lung, DMG-PEG2000:DSPC:Chol:compound 1.00:10.00:33.00:56.00, N/P 48): 98.17%
IVIS (mice; IV, lung, DMG-PEG2000:DSPC:Chol:compound 1.00:10.00:33.00:56.00, N/P 48, Fluc-mRNA): 7.69E+08
% of organ targeting (mice; IV, spleen, DMG-PEG2000:DSPC:Chol:compound 1.00:10.00:33.00:56.00, N/P 48): 1.09%
IVIS (mice; IV, spleen, DMG-PEG2000:DSPC:Chol:compound 1.00:10.00:33.00:56.00, N/P 48, Fluc-mRNA): 8.58E+06
in vivo delivery efficiency as compared to the benchmark compound SM102 (mice): superior in vivo delivery efficiency
tissue-targeting specificity (lung vs spleen depending on molar percentage of compound) (mice): strong tissue-targeting specificity
